This note sets out measurements from PubChem BioAssay AID2060893 (Molecular Pharmacology Branch, DTP, NCI, 2025).

The assay has as its system K86415-001-R-J1-PDC complex spheroids, viability. The assay can be described thus: Anticancer human tumor K86415-001-R-J1-PDC patient-derived lung adenocarcinoma cell line growth inhibition [RAS]. The following applies: for viability, T/C: stronger effect = lower value. The source says: RAS pathway inhibitors in Combinations in Complex Spheroids
A high-throughput screen of multi-cell type tumor spheroids was designed to identify active combinations of RAS pathway inhibitors and targeted small molecules. Complex spheroids include a stromal component modeled by human endothelial cells (HUVEC) and fibroblasts modeled by human mesenchymal stem cells (MSCs). The concentration ranges selected for each drug and investigational agent were based upon clinically achievable concentrations if the clinical Cmax of the agent was known.
Compounds. The drugs and investigational agents: abemaciclib (NSC768073), cobimetinib (NSC768068), divarasib (GDC6063, NSC841802), docetaxel (NSC628503), GDC-1971 (RLY-1971, NSC841576), gemcitabine (NSC613327), inavolisib (NSC800729), ipatasertib (NSC767898), KB-0742 (NSC834161), MRTX-1133 (NSC836407), osimertinib (NSC779217), RMC-4630 (NSC839698), RMC-6236 (NSC851965), RMC-6291 (NSC852671), Ro-3306 (NSC812927), sapanisertib (NSC764658), SN-38 (NSC673596), staurosporine (NSC755774), SY5609 (NSC837396), and tovorafenib (DAY101, NSC766906), were obtained from the National Cancer Institute (NCI) Developmental Therapeutics Program Chemical Repository. The FDA-approved anticancer drug set is available from the NCI Developmental Therapeutics Program. […] The stock solutions were prepared in dimethyl sulfoxide (DMSO, Sigma-Aldrich, St. Louis, MO, cat. D2650) at 800-fold the tested concentration and stored at -70 degrees C prior to their use. All drugs and investigational agents were tested over a range starting from a high concentration at or near the clinical Cmax and decreasing in half-log increments. If the clinical Cmax for an agent had not been determined, the highest concentration tested was 10 microM.
Cell Culture. All cells were maintained in an incubator at 37 degrees C and 5% CO2 with 95% humidity. The PDC lines were cultured according to standard operating procedures established by the NCI PDMR. All PDCs were thawed and cultured in Matrigel-coated flasks prepared with a working solution of 1X Ham's F-12 nutrient mix, without supplementation (Invitrogen, Waltham, MA, cat. 11765054), 100 U/mL penicillin-streptomycin (Invitrogen, cat. 15140122), and 2.5% Matrigel (Corning Inc., Corning, NY, cat. 354248) for the first three passages. The 362531-283-R-J2-PDC and 782815-120-R-J1-PDC lines were cultured in 6C/Colon 1B media, which includes advanced DMEM/F-12 (Thermo Fisher Scientific, cat. 12634028), 10 mM HEPES (Thermo Fisher Scientific, cat. 15630080), 1X GlutaMAX supplement (Thermo Fisher Scientific, cat. 35050061), 0.1 mg/mL primocin (InvivoGen, San Diego, CA, cat. ant-pm-2), 10% defined fetal bovine serum, heat inactivated (HyClone Laboratories Inc., Logan, UT, cat. SH30070.03HI), 50% L-WRN conditioned media (ATCC, cat. CRL-3276), 1.25 mM N-Acetyl-L-cysteine (Sigma-Aldrich, cat. A9165), 10 mM nicotinamide (Sigma-Aldrich, cat. N0636), 1X B-27 supplement (Thermo Fisher Scientific, cat. 17504044), 1X N-2 supplement (Thermo Fisher Scientific, cat. 17502048), 50 ng/mL human EGF (Thermo Fisher Scientific, cat. PHG0311), and 10 microM Y-27632 dihydrochloride (Tocris Bioscience, cat. 1254). The K12877-001-R-J1-PDC line was cultured in 6I media, which includes all 6C/Colon 1B media plus 10 ng/mL human FGF-10 (PeproTech, cat. 100-26), 1 ng/mL human FGF-2 (PeproTech, cat. 100-18B), 1 µM prostaglandin E2 (Tocris Bioscience, cat. 2296), […] hydrocortisone (Sigma-Aldrich, cat. H4001), and […] bovine insulin (Sigma-Aldrich, cat. I6634). The K86415-001-R-J1-PDC line was cultured in 6D media, which includes all 6C/Colon 1B media components minus the L-WRN conditioned media. The 485176-168-R4-J1-PDC was cultured in PANC media, which includes all 6C/Colon 1B media plus 100 ng/mL human FGF-10 (PeproTech, cat. 100-26), 500 nM SB-431542 (Selleckchem, cat. S1067), and 10 nM gastrin (Tocris Bioscience, cat. 3006). […]

“And” between values parts separate entries of the source, which are not always exact repeats. Equal values may be shown once.
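Further: spheroids exposed to agents for seven days before readout.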

As for `CC1(O)CCCC1n1c(=O)c(C(F)F)cc2cnc(NC3CCN(S(C)(=O)=O)CC3)nc21` (stereo not drawn), the viability, T/C reads like this: (compound 0.0316 µM) 83.8% and 84.3% and 80.5% (2×); (compound 0.1 µM) 87.1% [middle of 4 runs]; (compound 0.316 µM) 65.7% [middle of 4 runs]; (compound 1 µM) 72% (2×) and 75% and 80.8%; (compound 10 µM) 10.4% [middle of 4 runs]. The concentration for half-maximal inhibition (IC50) (curve of compound) is 5.04 µM [middle of 4 runs].

On to `NC1c2ccccc2OC12CCN(c1cnc3c(N4CCCc5ncccc54)n[nH]c3n1)CC2` (stereo not drawn) + C#Cc1c(F)ccc2cc(O)cc(-c3ncc4c(N5CC6CCC(C5)N6)nc(OCC56CCCN5CC(F)C6)nc4c3F)c12, for which the IC50 was < 0.0316 µM (curve of first compound, second compound 0.0316 µM); < 0.0316 µM (curve of first compound, second compound 0.1 µM); < 0.0316 µM (curve of first compound, second compound 0.316 µM); < 0.0316 µM (curve of first compound, second compound 1 µM); < 0.0316 µM (curve of first compound, second compound 3.16 µM); < 0.0316 µM (curve of first compound, second compound 10 µM). For the same compound, the viability, T/C is, setting by setting: (second compound 0.0316 µM, first compound 0.0316 µM) 34.9%; (second compound 0.0316 µM, first compound 0.1 µM) 25.9%; (second compound 0.0316 µM, first compound 0.316 µM) 18.1%; (second compound 0.0316 µM, first compound 1 µM) 14.8%; (second compound 0.0316 µM, first compound 3.16 µM) 17.4%; (second compound 0.0316 µM, first compound 10 µM) 15.8%. Besides, the viability, T/C was 36.4% (second compound 0.1 µM, first compound 0.0316 µM); 23.2% (second compound 0.1 µM, first compound 0.1 µM); 16.8% (second compound 0.1 µM, first compound 0.316 µM); 13.9% (second compound 0.1 µM, first compound 1 µM); 12.5% (second compound 0.1 µM, first compound 3.16 µM); 12.4% (second compound 0.1 µM, first compound 10 µM). Further, the viability, T/C is 28.2% (second compound 0.316 µM, first compound 0.0316 µM); 18.1% (second compound 0.316 µM, first compound 0.1 µM); 11.8% (second compound 0.316 µM, first compound 0.316 µM); 8.85% (second compound 0.316 µM, first compound 1 µM); 10.4% (second compound 0.316 µM, first compound 3.16 µM); 8.35% (second compound 0.316 µM, first compound 10 µM). Moreover, the viability, T/C (second compound 1 µM, first compound 0.0316 µM) was 17.7%; the viability, T/C (second compound 1 µM, first compound 0.1 µM) is 11.2%; the viability, T/C (second compound 1 µM, first compound 0.316 µM) is 8.78%; the viability, T/C (second compound 1 µM, first compound 1 µM) is 7.65%; the viability, T/C (second compound 1 µM, first compound 3.16 µM) is 5.83%; the viability, T/C (second compound 1 µM, first compound 10 µM) was 5.6%. Besides, the viability, T/C runs as follows: (second compound 3.16 µM, first compound 0.0316 µM) 9.96%; (second compound 3.16 µM, first compound 0.1 µM) 7.32%; (second compound 3.16 µM, first compound 0.316 µM) 5.29%; (second compound 3.16 µM, first compound 1 µM) 4.36%; (second compound 3.16 µM, first compound 3.16 µM) 4.13%; (second compound 3.16 µM, first compound 10 µM) 5.5%. Moreover, the viability, T/C reads like this: (second compound 10 µM, first compound 0.0316 µM) 7.06%; (second compound 10 µM, first compound 0.1 µM) 4.42%; (second compound 10 µM, first compound 0.316 µM) 3.79%; (second compound 10 µM, first compound 1 µM) 3.47%; (second compound 10 µM, first compound 3.16 µM) 4%; (second compound 10 µM, first compound 10 µM) 4.4%.
